This is an account of results in patent US20050266435A1, “VR1 receptors and uses thereof” (priority 2004, published 2005).

The target in assay [1] is T1, mutant VR1 receptor Y511C (Homo sapiens, UniProt Q8NER1, Y511C). Briefly: Calcium imaging with fura-2 in transfected HEK293 cells, low pH (pH 5.1) stimulus. The assay is classed as cell-based. Also noted: expressed in transfected cells; host or cells: HEK293. On the procedure:
(§1) The resulting sequence-verified mutant VR1 DNA was inserted into the pcDNA3.1 vector (Invitrogen). Human HEK293 cells were then transfected with the DNA, incubated at 37° C. for 24-48 hrs, and then analyzed for receptor response using calcium imaging techniques.
(§2) Calcium imaging was performed using a Zeiss Axiovert 200M fluorescence microscope equipped with a Photonics Polychrome IV monochrometer fluorescence excitation system as well as a multivalve perfusion system for delivering drugs. Cells were plated on 12 mm glass coverslips and loaded with fura2-AM for 30 min at 37° C. Imaging was performed by alternatively measuring the fluorescence excited at 340 nm and 380 nm at 5 sec time intervals. The ratio between these measured fluorescence values (F340/F380) was then calculated and graphed as a function of time. The 340/380 fluorescence ratio is proportional in a nonlinear way to the intracellular free calcium concentration. Since VR1 is a calcium channel, its opening results in an influx of calcium into the cytoplasm and an increase in the 340/380 fluorescence ratio.
(§3) A normal saline (pH 7.6) wash solution was used as the control solution. […] Compound 18 is named 4-(3-Chloropyridin-2-yl)-N-(4-trifluoromethyl-phenyl)benzamide, and is described and disclosed in commonly owned co-pending International Application No. PCT/US04/033099 filed Oct. […]

Another assay addresses human VR1 (Homo sapiens, UniProt Q8NER1). To be noted: cited from earlier work.
Assay [2] has as its target T1, mutant VR1 receptor Y511C. Briefly: Specific binding of 3H-Resiniferatoxin to membranes of 293 HEK cells. To be noted: 3H-RTX 0.5 nM, absence or presence of unlabeled RTX 200 nM. Further details: expressed in transfected cells; host or cells: HEK293. The protocol: Specific binding of ^3H-Resiniferatoxin (RTX) to membranes of 293 HEK cells expressing human VR 1 and mutant VR 1 receptor Y511C was assessed and the results are presented in FIG. 6. Binding of ^3H-RTX (0.5 nM) to the membranes was conducted in the absence (labeled total binding) or presence (labeled non specific binding) of unlabeled RTX (200 nM) as indicated.

The target of assay [3] is T2, mutant channel Y511A (VR1) (Homo sapiens, UniProt Q8NER1, Y511A).
T2 construct: expressed in transfected cells; host or cells: HEK293
Briefly: Calcium imaging with fura-2 in transfected HEK293 cells, low pH stimulus. The assay is classed as cell-based. On the procedure: as §1, §2, §3

Assay [4] concerns the target T3, mutant VR1 receptor Y511A (Homo sapiens, UniProt Q8NER1, Y511A).
T3 construct: expressed in transfected cells; host or cells: Xenopus oocytes (RNA injected, pTNT vector)
In words: Two-electrode voltage clamp in Xenopus oocytes, capsaicin activation. Format: cell-based. The note with it: capsaicin concentrations as high as 100 μM. On the procedure: (§4) The ability of capsaicin to activate the mutant VR1 receptors was evaluated in an oocyte system. cDNAs containing the coding sequences of the unmutated human VR1 receptor as well as the mutant receptors Y511A, […], and S512Y were placed into the multiple-cloning site in the pTNT vector (Promega), which contains a T7 promoter sequence, the beta-globin 5′UTR, and a polyadenylation sequence to enhance translation and RNA stability. RNA was synthesized in-vitro using T7 RNA polymerase. The RNA for each channel was injected into Xenopus oocytes (obtained from Nasco, Inc) and incubated at 16° C. for 3-5 days. Standard two-electrode voltage clamp recordings were used to analyze the function of each expressed channel. Solutions were passed over the oocytes using a multiple-valve perfusion system.

The target of assay [5] is T1, mutant VR1 receptor Y511C. The description is as above. Format: cell-based. To be noted: capsaicin concentrations as high as 100 μM. On the procedure:
as §4

In assay [6] the target is T4, wild-type human VR1 receptor (Homo sapiens, UniProt Q8NER1).
T4 construct: expressed in transfected cells; host or cells: Xenopus oocytes (RNA injected, pTNT vector)
The description is as above. Format: cell-based. To be noted: 10 μM capsaicin. The protocol: as §4

Assay [7] concerns the target T5, mutant channel S512Y (VR1) (Homo sapiens, UniProt Q8NER1, S512Y). In words: Calcium imaging with fura-2 in transfected HEK293 cells, low pH stimulus. Format: cell-based. Further details: expressed in transfected cells; host or cells: HEK293. The protocol: as §1, §2, §3
Assay [8] addresses T5, mutant channel S512Y (VR1). Briefly: Two-electrode voltage clamp in Xenopus oocytes, capsaicin activation. Format: cell-based. Further details: expressed in transfected cells; host or cells: Xenopus oocytes (RNA injected, pTNT vector). On the procedure: as §4
The next assay addresses rat VR1 (Rattus norvegicus, UniProt O35433). To be noted: cited from earlier work.

SMILES strings stand for the structures.

Sequence of rat VR1 (O35433 whole entry): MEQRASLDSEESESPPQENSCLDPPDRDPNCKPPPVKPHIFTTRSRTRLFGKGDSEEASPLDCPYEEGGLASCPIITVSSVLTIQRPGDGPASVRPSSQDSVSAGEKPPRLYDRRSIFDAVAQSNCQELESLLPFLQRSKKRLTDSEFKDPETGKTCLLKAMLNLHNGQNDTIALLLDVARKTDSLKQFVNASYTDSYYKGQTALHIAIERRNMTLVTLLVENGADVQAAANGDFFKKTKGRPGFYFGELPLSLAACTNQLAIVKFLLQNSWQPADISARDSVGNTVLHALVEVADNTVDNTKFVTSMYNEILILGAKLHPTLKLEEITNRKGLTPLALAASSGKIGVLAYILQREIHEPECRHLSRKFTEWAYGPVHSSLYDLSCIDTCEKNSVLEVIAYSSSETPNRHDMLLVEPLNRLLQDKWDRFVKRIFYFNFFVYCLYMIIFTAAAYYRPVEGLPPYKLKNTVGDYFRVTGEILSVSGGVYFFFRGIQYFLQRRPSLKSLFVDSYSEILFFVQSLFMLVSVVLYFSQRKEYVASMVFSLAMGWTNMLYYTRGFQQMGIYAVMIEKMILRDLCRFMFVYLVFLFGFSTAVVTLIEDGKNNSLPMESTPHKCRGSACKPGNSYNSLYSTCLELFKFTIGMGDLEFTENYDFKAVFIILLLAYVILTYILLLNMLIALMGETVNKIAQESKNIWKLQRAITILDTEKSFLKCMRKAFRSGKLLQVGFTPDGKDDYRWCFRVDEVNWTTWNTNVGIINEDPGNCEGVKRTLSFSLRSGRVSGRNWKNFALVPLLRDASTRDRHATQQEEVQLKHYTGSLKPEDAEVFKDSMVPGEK

With `O=C(Nc1ccc(C(F)(F)F)cc1)c1ccc(-c2ncccc2Cl)cc1` [Compound 18, 4-(3-Chloropyridin-2-yl)-N-(4-trifluoromethyl-phenyl)benzamide], the IC50 in [1] (mutant VR1 receptor channel, read-out: IC50 for channel blocking activity) came out at 135 nM.
Consider `COc1cc(CC(=O)OCC2=C[C@H]3[C@@H]4C(C)(C)[C@]4(OC(C)=O)[C@H](OC(=O)Cc4ccccc4)[C@@H](C)[C@]3(O)[C@@H]3C=C(C)C(=O)[C@@]3(O)C2)ccc1O` [PPAHV, phorbol 12-phenylacetate 13 acetate 20-homovanillate], for which the “agonist activity on human VR1” value at human VR1 (up to a concentration of 10•M) is “essentially inactive”.
In the case of `C=C(C)[C@]12C[C@@H](C)[C@@]34O[C@](Cc5ccccc5)(O[C@@H]1[C@@H]3C=C(COC(=O)Cc1ccc(O)c(OC)c1)C[C@]1(O)C(=O)C(C)=C[C@@H]41)O2` [RTX, resiniferatoxin], the “binding to the mutant VR1 receptor” value in assay [2] was “no significant binding”.
In the case of `COc1cc(CNC(=O)CCCC/C=C/C(C)C)ccc1O` [capsaicin], the “sensitivity of channel to capsaicin” value in assay [3] and in assay [7] was “capsaicin-insensitive” each time. In addition, the “capsaicin response (current)” value in [4] is listed as “no detectable capsaicin response”; in assay [5] it was “no detectable capsaicin response”; in assay [6], “large response”; in [8] (10 μM capsaicin (data not shown)), “no detectable response”; in [8] (100 μM capsaicin) it was “small capsaicin response”. For the same compound, the “response to capsaicin (calcium influx)” value in assay [1] (250 nM capsaicin, Y511C in transfected 293 cells) is on record as “no detectable response”.
For `Oc1cc2c(cc1O)CN(C(=S)NCCc1ccc(Cl)cc1)CCC2` [capsazine], at rat VR1, the “block of low pH-evoked responses” value was “not” and the “inhibition of heat response” value was “weak inhibitor”. Further, on human VR1 (greater potency on human VR1 receptors than rat), the “potency of inhibition of capsaicin activation, human VR1 versus rat” value is reported as “approximately 6 fold”. Moreover, on human VR1 (human VR1), the “block of VR1-mediated heat response” value is “highly effective” and the “block of low pH-evoked responses” value is given as “blocked”.
